Assay results taken from patent US9645154B2, “Method for detecting cancer cell” (ARKRAY, Inc., priority 2010, dated 2017).

Tests used:
Format in all cases: cell-based
[1] = test system: human colon adenocarcinoma cells (SW620); assay: Labeled sugar incorporation, fluorescence microscopy image analysis (positive rate); settings: threshold value 280
Experimental: (§1) The number of the cells was counted for each cell line using a hemacytometer in accordance with the conventional method, and then 10^5 to 10^6 cells per sample (cell suspension) was aliquoted. Each of the sample was centrifuged to remove the supernatant. Subsequently, 2-NBDG (Wako Pure Chemical Industries, Ltd.; at the final concentration given in Table 3 or 4) dissolved in Dulbecco's PBS (−) was added thereto, and the cells were suspended well. After the reaction, Dulbecco's PBS (−) was added to the mixture, and the resultant was centrifuged to remove the supernatant. The cells were resuspended with Dulbecco's PBS (−) and centrifuged, and the supernatant was removed again. The steps of resuspending cells with Dulbecco's PBS (−), centrifuging and removing the supernatant were then repeated 2 to 3 times, thereby washing the cells thoroughly. The cells were resuspended with Dulbecco's PBS (−), the concentration thereof was adjusted, and then added dropwise to a 384-well plate. The plate was centrifuged to spin down the cells. The image was captured with a fluorescence microscope (Nikon Corp.) using B-2A filter combination (Nikon Corp.). The B-2A set covers the following wavelengths. EX (excitation wavelength): 475±15 nm, DM: 505 nm or longer, BA (fluorescence wavelength) 520 nm or longer.
(§2) The acquired images were analyzed using an image analysis software NIS-ELEMENTS (trade name, Nikon Corp.) to evaluate the fluorescence intensity of the cell.
(§3) In a manner similar to Example 2, each of human breast adenocarcinoma cells (cell line name: MCF-7; DS Pharma Biomedical Co., Ltd.), human colon adenocarcinoma cells (cell line name: SW620; DS Pharma Biomedical Co., Ltd.), human prostate cancer cells (cell line name: PC3; DS Pharma Biomedical Co., Ltd.), human alveolar epithelial cancer cells (cell line name: NCI-H358; DS Pharma Biomedical Co., Ltd.), human gastric cancer cells (cell line name: SNU-1; ATCC) and human fibrosarcoma cells (cell line name: HT1080; DS Pharma Biomedical Co., Ltd.) was detected with the labeled sugar (2-NBDG).

[2] = test system: human alveolar epithelial cancer cells (NCI-H358); assay: as above; settings: hemolyzed, 10 mM, 5 min, 23° C., threshold value 370
Experimental: as §1, §2, §3

[3] = test system: human prostate cancer cells (PC3); assay: as above; settings: hemolyzed, 10 mM, 5 min, 23° C., threshold value 880
Experimental: as §1, §2, §3

[4] = test system: human breast adenocarcinoma cells (MCF-7); assay: as above; settings: hemolyzed, 10 mM, 5 min, 23° C., threshold value 330
Experimental: as §1, §2, §3

[5] = test system: human gastric cancer cells (SNU-1); assay: Aminolevulinic acid (with FeCl2 and ascorbic acid) labeling, fluorescence microscopy image analysis (positive rate); settings: hemolyzed, 0.3 mM, 60 min, 37° C., threshold value 198
From the text: In accordance with the conventional method, cultured human prostate cancer cell line PC3 (DS Pharma Biomedical Co., Ltd.) was harvested with trypsin (Invitrogen). The human gastric cancer cell line SNU-1 (ATCC), which is a suspension cell line, was directly harvested without any trypsin treatment. The cell suspension of the harvested cancer cells was centrifuged, and the supernatant was removed. The cells were resuspended with Dulbecco's PBS (+) (Nissui Pharmaceutical Co., Ltd.) and centrifuged, and the supernatant was removed again.
The number of the cells was counted using a hemacytometer in accordance with the conventional method, and then 10^5 to 10^6 cells per sample (cell suspension) was aliquoted. The sample was centrifuged to remove the supernatant. […] The image was captured with a fluorescence microscope (Nikon Corp.).
The wavelengths for the fluorescence filter set: EX (excitation wavelength): 402±7.5, DM: 430 or longer, BA (fluorescence wavelength): 625±15.
The acquired images were analyzed using an image analysis software NIS-ELEMENTS (trade name, Nikon Corp.) to evaluate the fluorescence intensity of the cell. […]

Structure (SMILES)	Positive rate (Cancer cells) ([1]; hemolyzed, 10 mM, 5 min, 23° C.)	Positive rate (Cancer cells) ([1]; single, Glucose conc.: 1 mM, Temp.: 37° C., Time: 30 min)	Positive rate (Cancer cells) [2]	Positive rate (Cancer cells) [3]	Positive rate (Cancer cells) [4]	Positive rate (Cancer cells) [5]
O=[N+]([O-])c1ccc(N[C@H]2C(O)O[C@H](CO)[C@@H](O)[C@@H]2O)c2nonc12 (stereo partly drawn) [2-NBDG, 2-[N-(7-nitrobenz-2-oxa-1,3-diazol-4-yl)amino]-2-deoxy-D-glucose]	100.0%	100.0%	83.0%	69.8%	100.0%	
NCC(=O)CCC(=O)O [aminolevulinic acid, 5-amino-4-oxopentanoic acid]						81.6%
